Assay results: patent publication US20130047297A1, “POLYNUCLEOTIDE MOLECULES FOR GENE REGULATION IN PLANTS” (priority 2010, published 2013)
{AF488} = Alexa Fluor 488 fluorescent label (Invitrogen)

Tests used:
[1] = system: detached leaves of glyphosate-resistant Palmer amaranth; experiment: Petiole uptake of fluorescently labelled ssDNA oligonucleotide in detached leaves (Example 9); design: species or system Amaranthus palmeri
Procedure: Petioles of detached leaves of glyphosate-resistant Palmer amaranth were placed in 200 mM sucrose solution with fluorescently labelled ssDNA oligonucleotides (SEQ ID NO:15). Leaf images were taken by Bio-Rad PharosFX imager equipped with a 488 nm laser from 4 h up to 48 h after uptake through petiole. Leaves incubated with 200 mM sucrose alone served as control.

[2] = system: phytoene desaturase (PDS) gene in lettuce (Lactuca sativa); experiment: Topical PDS ssDNA on lettuce, bleaching (Example 24); assay type: in vivo; conditions: 8 nanomoles polynucleotide per plant (mixture: 2 nanomoles each); observed at 4
Procedure: Lettuce variety LS49 “Green Tower” was used in the assays. Two fully expanded leaves of each plant were dipped into a freshly made 0.1% Silwet L-77 in double-distilled water solution for a few seconds. The leaves were allowed to dry for 15-30 minutes. Each plant was then treated by applying 20 microliters ssDNA solution to the top surface of two Silwet-treated leaves (total 40 microliters per plant). Table 9 lists the assay conditions used and the observed bleaching of plants topically treated with ssDNA polynucleotides.
The assays were repeated with 2 or 4 nanomoles ssDNA applied per plant.
The assays were repeated using each individual anti-sense ssDNAs (“HL287”, SEQ ID NO:55; “HL288”, SEQ ID NO:56; “HL289”, SEQ ID NO:57; and “HL290”, SEQ ID NO:58) with 8 nanomoles polynucleotide applied per plant; positive control plants were treated with a mixture of the four individual anti-sense ssDNAs at 2 nanomoles each (for a total of 8 nanomoles polynucleotide applied per plant) and negative control plants were treated only with buffer.

[3] = system: phytoene desaturase (PDS) gene in tomato (Solanum lycopersicum); experiment: Topical PDS dsRNA on tomato (Example 25); assay type: in vivo; conditions: 2.5 micromolar dsRNA, 40 microliters per plant
Source text: A 201 nucleotide dsRNA polynucleotide with an anti-sense strand capable of hybridizing to the RNA encoded by the sequence […] […] […] AG (SEQ ID NO:60) which correspond to the nucleotides at positions 1724-1923 of the mRNA transcribed from the tomato PDS gene sequence (SEQ ID NO:59) was synthesized by RT PCR using oligonucleotide primers with the sequences […] (SEQ ID NO:61, sense primer) and […] (SEQ ID NO:62, anti-sense primer). A 2.5 micromolar dsRNA solution was made with the 201 nucleotide dsRNA polynucleotide (SEQ ID NO:60) in 0.01% Silwet L-77 in 5 millimolar sodium phosphate buffer, pH 6.8.
Three-week old tomato seedlings were treated as follows. Two fully expanded leaves were dipped into a freshly made 0.1% Silwet L-77 solution in double-distilled water for a few seconds. The leaves were allowed to dry for 30 minutes to 1 hour. Each plant was then treated by applying 20 microliters dsRNA solution to the top surface of two Silwet-treated leaves (total 40 microliters per plant). Control plants were treated with buffer. The plants were kept in a growth chamber for observation. FIG. 30 depicts the systemic silencing of the target gene PDS as evidenced by bleaching of the dsRNA-treated plants 30 days after topical treatment.

Molecule: Anti-sense_PO1_488: SEQ ID NO:15, 5′-labelled with Alexa Fluor 488 (antisense ACCCTCCACGACTGCCCTTT; DNA, 5' {AF488}, backbone not given here; listed as Amaranthus palmeri)
- distribution in leaf ([1]; at 24 h and 48 h): accumulate at the leaf edge
- vascular uptake into leaf ([1]; petiole in 200 mM sucrose, imaged 4 h up to 48 h): slightly time-dependent vascular uptake
- release from vascular tissue into cells, as early as (time after treatment) ([1]; petiole uptake): 8 h

Molecule: HL288: SEQ ID NO:56, anti-sense ssDNA, lettuce PDS (antisense CCATTCAATGGTGCAGGTAAAAC; DNA, backbone not given here)
- systemic silencing (FIG. 29B) [2]: systemic silencing evidenced by bleaching

Molecule: HL289: SEQ ID NO:57, anti-sense ssDNA, lettuce PDS (antisense CATAGAATGCTCCTTCCACTG; DNA, backbone not given here)
- systemic silencing (FIG. 29B) [2]: systemic silencing evidenced by bleaching

Molecule: HL290: SEQ ID NO:58, anti-sense ssDNA, lettuce PDS (antisense CAAATAAATTTTGTACATTTGGGTAAGCTCCAA; DNA, backbone not given here)
- systemic silencing (FIG. 29B) [2]: systemic silencing evidenced by bleaching

B1: 201 nucleotide dsRNA polynucleotide: dsRNA to SEQ ID NO:60, positions 1724-1923 of tomato PDS mRNA (nucleic acid)
sense: TCGCAGCGACTCAGAAATTATTGATGCAACGATGAAGGAACTAGCAACGCTTTTTCCTGATGAAATTTCAGCAGATCAAAGCAAAGCAAAAATATTGAAGTACCATGTTGTCAAAACTCCGAGGTCTGTTTATAAAACTGTGCCAGGTTGTGAACCCTGTCGGCCTTTACAAAGATCCCCAATAGAGGGGTTTTATTTAG
modifications: complementary strand
- plant growth compared to control plants [3]: severely stunted
- systemic silencing of PDS (FIG. 30) ([3]; 30 days after topical treatment): bleaching
